Measured values reported in ChEMBL document CHEMBL1201862, “PubChem BioAssay data set” (2004).
Active and inactive are the calls of the source.

Tests used:
[1] = molecular target: T1, Corticotropin-releasing factor receptor 2/Corticotropin-releasing factor-binding protein (Homo sapiens, UniProt P24387+Q13324); assay: Dose Response confirmation of uHTS hits for small molecule antagonists of the CRF-binding protein and CRF-R2 receptor complex.; format: functional; conditions: read-out: IC50_Mean
T1 sequence (Q13324 whole entry): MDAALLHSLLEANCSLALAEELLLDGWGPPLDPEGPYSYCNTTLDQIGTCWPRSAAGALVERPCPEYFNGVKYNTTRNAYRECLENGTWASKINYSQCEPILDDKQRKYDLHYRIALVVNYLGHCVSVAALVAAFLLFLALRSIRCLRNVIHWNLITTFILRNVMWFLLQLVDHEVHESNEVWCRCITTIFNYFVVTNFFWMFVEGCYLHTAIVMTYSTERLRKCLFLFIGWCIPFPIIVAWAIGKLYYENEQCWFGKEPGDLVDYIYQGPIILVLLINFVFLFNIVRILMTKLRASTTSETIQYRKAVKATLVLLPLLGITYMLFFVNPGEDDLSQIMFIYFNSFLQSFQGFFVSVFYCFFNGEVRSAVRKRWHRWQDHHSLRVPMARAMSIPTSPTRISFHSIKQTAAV
T1 sequence (P24387 whole entry): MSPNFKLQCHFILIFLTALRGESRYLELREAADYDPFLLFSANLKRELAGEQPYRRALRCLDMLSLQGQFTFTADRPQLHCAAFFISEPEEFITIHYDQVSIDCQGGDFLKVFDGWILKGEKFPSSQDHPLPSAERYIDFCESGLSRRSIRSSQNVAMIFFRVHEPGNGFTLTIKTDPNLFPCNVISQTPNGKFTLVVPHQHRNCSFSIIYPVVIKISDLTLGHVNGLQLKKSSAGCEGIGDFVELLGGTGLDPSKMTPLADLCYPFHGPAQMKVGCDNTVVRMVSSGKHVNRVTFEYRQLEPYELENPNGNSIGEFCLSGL

[2] = molecular target: T1, Corticotropin-releasing factor receptor 2/Corticotropin-releasing factor-binding protein; assay: activators of CRF receptor 2 with binding protein – uHTS hits, confirmation (AID 602473); format: functional; conditions: read-out: EC50_Mean
[3] = tested on: H4; assay: Luminescence Cell-Based Dose Response HTS to Identify Activators of 5'UTR Stem-Loop Driven Prion Protein mRNA Translation in H4 Neuroglioblastoma Cells. [Related pubchem assays: 1829 (Project Summary), 1814 (Primary HTS)]; format: functional; conditions: Homo sapiens
[4] = molecular target: T2, Calpain-2 catalytic subunit (Sus scrofa, UniProt P43367); assay: m-calpain protease blockers, concentration series – biochemical, fluorogenic peptide substrate, dose response (AID 1420); format: functional
T2 sequence (P43367 whole entry): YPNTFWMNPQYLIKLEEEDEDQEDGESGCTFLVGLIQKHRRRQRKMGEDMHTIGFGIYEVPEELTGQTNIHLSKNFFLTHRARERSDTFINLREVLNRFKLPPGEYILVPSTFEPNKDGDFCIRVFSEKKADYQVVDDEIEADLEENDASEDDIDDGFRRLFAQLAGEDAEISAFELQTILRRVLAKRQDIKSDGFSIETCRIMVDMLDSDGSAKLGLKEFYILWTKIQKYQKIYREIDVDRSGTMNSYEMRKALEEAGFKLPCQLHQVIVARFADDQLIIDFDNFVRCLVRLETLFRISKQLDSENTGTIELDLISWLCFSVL

[5] = molecular target: FAD-linked sulfhydryl oxidase ALR (Homo sapiens, UniProt P55789); assay: ALR-catalysed DTT oxidation blockers – biochemical, H2O2 detection, luminescence, cherry-pick, dose response (AID 493248)
FAD-linked sulfhydryl oxidase ALR, sequence (P55789 whole entry): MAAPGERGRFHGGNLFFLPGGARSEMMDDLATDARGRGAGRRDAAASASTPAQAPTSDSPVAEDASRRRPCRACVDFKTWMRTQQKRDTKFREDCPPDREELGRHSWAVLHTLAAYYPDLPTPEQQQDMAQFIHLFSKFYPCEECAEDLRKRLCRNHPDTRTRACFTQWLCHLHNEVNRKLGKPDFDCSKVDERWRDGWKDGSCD

[6] = molecular target: T3, Protein RecA (Mycobacterium tuberculosis, UniProt P9WHJ3); assay: Fluorescence Cell-Free Homogeneous Dose Retest to Identify Inhibitors of RecA-Intein Splicing Activity. [Related pubchem assays (depositor defined):AID2097, AID2223, AID489010, AID492950]; format: functional
T3 sequence (P9WHJ3 whole entry): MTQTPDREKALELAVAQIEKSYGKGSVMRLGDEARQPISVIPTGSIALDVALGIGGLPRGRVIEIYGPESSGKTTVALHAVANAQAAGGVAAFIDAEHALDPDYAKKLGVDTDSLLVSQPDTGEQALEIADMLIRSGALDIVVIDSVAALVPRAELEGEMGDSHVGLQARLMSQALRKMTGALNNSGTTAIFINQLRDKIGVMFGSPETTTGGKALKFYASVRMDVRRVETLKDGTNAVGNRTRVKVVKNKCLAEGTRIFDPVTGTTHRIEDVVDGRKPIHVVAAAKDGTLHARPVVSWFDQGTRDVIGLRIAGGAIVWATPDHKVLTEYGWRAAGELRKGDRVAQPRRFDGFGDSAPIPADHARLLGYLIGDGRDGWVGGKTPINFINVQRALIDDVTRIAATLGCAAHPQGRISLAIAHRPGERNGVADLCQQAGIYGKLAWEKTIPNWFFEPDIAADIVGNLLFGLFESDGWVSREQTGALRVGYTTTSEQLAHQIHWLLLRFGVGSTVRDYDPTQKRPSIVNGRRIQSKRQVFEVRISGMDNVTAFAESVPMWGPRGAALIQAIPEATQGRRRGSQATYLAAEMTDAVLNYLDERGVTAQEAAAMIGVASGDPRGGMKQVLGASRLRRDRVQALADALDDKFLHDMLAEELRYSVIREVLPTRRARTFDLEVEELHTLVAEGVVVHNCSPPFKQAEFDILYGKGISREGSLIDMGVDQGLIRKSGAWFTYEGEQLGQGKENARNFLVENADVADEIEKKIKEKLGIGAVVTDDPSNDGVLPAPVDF

[7] = molecular target: T4, Replicative DNA helicase DnaB (Mycobacterium tuberculosis, UniProt P9WMR3); assay: DnaB intein splicing inhibitors, dose response, biochemical, cell-free fluorescence (AID 449749); format: functional
T4 sequence (P9WMR3 whole entry): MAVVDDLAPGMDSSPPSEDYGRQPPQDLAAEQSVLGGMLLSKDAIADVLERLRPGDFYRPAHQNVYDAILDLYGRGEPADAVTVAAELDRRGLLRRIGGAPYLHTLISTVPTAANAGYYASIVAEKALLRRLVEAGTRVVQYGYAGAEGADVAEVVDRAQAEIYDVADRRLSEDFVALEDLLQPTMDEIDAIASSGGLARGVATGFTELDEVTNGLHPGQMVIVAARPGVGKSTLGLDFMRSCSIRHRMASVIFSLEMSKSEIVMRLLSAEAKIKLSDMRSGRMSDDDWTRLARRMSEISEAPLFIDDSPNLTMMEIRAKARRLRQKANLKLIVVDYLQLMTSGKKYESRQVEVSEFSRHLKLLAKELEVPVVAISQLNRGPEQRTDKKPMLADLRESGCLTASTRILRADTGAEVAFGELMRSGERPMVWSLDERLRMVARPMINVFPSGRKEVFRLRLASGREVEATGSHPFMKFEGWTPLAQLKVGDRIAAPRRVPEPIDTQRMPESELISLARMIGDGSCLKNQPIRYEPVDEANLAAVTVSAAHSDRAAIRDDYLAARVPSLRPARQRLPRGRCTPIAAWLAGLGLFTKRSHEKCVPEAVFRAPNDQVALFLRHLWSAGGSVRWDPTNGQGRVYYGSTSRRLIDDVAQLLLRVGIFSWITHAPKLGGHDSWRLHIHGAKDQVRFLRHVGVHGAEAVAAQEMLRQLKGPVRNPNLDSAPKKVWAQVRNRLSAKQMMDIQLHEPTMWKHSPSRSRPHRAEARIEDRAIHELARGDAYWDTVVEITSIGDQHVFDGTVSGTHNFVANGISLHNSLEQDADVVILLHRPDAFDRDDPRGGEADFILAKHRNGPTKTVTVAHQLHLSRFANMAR

[8] = Luminescence Cell-Based Dose Retest to Confirm Inhibitors of Cancer Stem Cells. [Related pubchem assays (depositor defined):AID2717, AID2721]; format: functional; conditions: Homo sapiens
[9] = tested on: INS1; assay: INS-1E survival protection against cytokine death – cell-based, luminescence, retest, dose response (AID 449756); format: functional; conditions: Rattus norvegicus;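 note: cell death triggered by IL-1 beta plus TNF-alpha plus IFN-gamma mixture; protective hits raise ATP signal compared with cytokine alone wells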
[10] = molecular target: Paired box protein Pax-8 (Homo sapiens, UniProt Q06710); assay: PAX8 transcriptional activity inhibition in RMG-I – RMG-I cells, luciferase, cherry-pick, dose response (AID 687027); format: functional, cell-based;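 note: luciferase reporter driven by Pax8 target thyroperoxidase promoter measured by SteadyGlo luminescence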
Paired box protein Pax-8, sequence (Q06710 whole entry): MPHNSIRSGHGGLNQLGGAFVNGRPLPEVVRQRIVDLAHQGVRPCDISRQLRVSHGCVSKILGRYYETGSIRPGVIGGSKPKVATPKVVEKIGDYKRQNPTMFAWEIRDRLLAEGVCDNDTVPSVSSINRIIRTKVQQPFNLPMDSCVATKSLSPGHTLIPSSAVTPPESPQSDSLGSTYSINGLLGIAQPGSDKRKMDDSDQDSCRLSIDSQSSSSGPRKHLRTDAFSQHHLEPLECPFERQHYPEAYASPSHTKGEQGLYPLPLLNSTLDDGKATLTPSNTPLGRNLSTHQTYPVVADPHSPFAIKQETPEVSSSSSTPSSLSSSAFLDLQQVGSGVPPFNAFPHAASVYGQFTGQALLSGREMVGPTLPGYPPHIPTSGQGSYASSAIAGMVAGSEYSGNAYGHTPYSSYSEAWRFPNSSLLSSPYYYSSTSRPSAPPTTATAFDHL

[11] = molecular target: Luciferin 4-monooxygenase (Photinus pyralis, UniProt P08659); assay: inhibition of purified Photinus pyralis luciferase – biochemical, luminescence, dose response (AID 1891)
Luciferin 4-monooxygenase, sequence (P08659 whole entry): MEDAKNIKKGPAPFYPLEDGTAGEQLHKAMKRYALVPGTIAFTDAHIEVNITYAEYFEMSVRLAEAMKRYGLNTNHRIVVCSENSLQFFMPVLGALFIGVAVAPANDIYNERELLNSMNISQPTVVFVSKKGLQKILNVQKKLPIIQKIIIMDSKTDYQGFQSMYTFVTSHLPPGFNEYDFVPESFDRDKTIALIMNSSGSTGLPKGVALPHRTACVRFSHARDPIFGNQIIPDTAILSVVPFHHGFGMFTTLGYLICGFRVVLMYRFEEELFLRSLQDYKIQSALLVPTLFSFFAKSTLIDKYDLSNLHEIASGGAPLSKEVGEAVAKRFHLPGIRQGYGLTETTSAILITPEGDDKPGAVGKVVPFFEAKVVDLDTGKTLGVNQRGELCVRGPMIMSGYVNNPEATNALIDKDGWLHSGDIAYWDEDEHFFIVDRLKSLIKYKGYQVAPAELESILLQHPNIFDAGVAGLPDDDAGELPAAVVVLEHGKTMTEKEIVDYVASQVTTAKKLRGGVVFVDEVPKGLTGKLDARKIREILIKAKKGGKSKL

[12] = Luminescence Cell-Based Dose Confirmation HTS to Identify Inhibitors of Platelet Dense Granule Release. [Related pubchem assays: 1663 (Primary HTS), 1678 (Summary of Project)]; format: functional
[13] = P. falciparum Dd2 growth inhibitors, dose response, SYBR Green, cherry-picked samples (AID 1159567); format: functional, cell-based
[14] = molecular target: T5, Heat shock factor protein 1 (Mus musculus, UniProt P38532); assay: enhancement of HSF1-driven luciferase signal – cell-based, NIH3T3, luminescence, dose retest, confirmation (AID 435004); format: functional;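 note: stress induced by proteasome inhibitor MG132 added 30 min after compound; luciferase reporter driven by HSF1 response element in NIH3T3 cells; actives raise luminescence as potentiators of the MG132 stress response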
T5 sequence (P38532 whole entry): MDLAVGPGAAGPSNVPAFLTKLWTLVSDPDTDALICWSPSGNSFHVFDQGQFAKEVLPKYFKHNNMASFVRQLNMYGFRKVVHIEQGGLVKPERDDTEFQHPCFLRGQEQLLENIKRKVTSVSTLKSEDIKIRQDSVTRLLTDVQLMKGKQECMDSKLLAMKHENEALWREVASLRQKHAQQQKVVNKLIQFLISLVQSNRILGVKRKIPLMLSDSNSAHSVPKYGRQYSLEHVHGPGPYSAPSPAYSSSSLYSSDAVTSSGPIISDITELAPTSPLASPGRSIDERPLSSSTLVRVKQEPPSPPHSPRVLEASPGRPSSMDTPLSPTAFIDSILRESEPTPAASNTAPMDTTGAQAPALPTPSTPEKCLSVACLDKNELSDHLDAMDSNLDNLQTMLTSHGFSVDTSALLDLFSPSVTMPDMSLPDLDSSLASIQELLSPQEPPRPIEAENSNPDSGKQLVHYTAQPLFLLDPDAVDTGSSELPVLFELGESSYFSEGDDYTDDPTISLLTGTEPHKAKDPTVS

Compound: COc1cccc(NC(=O)COC(=O)c2ccccc2C(=O)N2CCN(c3ccccc3)CC2)c1
- IC50 [1]: > 47.1 µM (inactive)
- EC50 [2]: > 53 µM (inactive)

Compound: Cc1c(C(=O)NCc2cccnc2)oc2ccccc12
- IC50 [1]: > 47.1 µM (inactive)
- EC50 [2]: > 53 µM (inactive)

Compound: Cc1cccc(COc2ccc(/C=N/NC(=O)c3nnn(-c4nonc4N)c3COc3ccc(F)cc3)cc2)c1
- EC50 [3]: 61.7 µM (active)

Compound: N#Cc1c(NC(=O)c2ccccc2)sc2c1CCC2
- EC50 [3]: 12.6 µM (active)

Compound: COc1ccc(Nc2c(-c3ccc(C)cc3)nc3cnccn23)cc1
- IC50 [4]: > 50 µM (not active)
- AC50 [5]: 0.763 µM (active)

Compound: NC(=O)NC(=O)C(Nc1ccc(N2CCCCC2)cc1)c1ccccc1 (stereo not drawn)
- AC50 [5]: 0.797 µM (active)

Compound: Cc1n[nH]c2c1C(c1ccoc1)C(C#N)=C(N)O2 (stereo not drawn)
- EC50 [6]: 2.25 µM (active)
- AC50 [7]: 5.36 µM (active)

Compound: CCc1ccc(S(=O)(=O)Nc2ccc(O)c3ccccc23)cc1
- AC50 [8]: 5.13 µM (active)
- EC50 [6]: 0.0482 µM (active)
- AC50 [9]: 8.73 µM (active)
- AC50 [7]: 0.305 µM (active)

Compound: C[C@@H]1CCCCO[C@H](CN(C)Cc2ccc(Cl)c(Cl)c2)[C@H](C)CN([C@@H](C)CO)C(=O)c2cc(NC(=O)Nc3ccccc3)ccc2O1
- AC50 [10]: 8.42 µM (active)

Compound: COc1cccc(Nc2ccccc2C(=O)O)c1
- AC50 [5]: 3.35 µM (active)

Compound: O=C(O)c1cccc2c3c([nH]c12)CCCC3
- AC50 [5]: 5.66 µM (active)

Compound: COc1ccc(C(=O)Nc2ccccc2C(=O)N/N=C/c2cccc3ccccc23)cc1
- EC50 [11]: 1.35 µM (active)
- EC50 [3]: > 120 µM (not active)
- EC50 [12]: 1.15 µM (active)

Compound: O=C(Nc1nc(-c2cccs2)c(-c2cccs2)s1)C1(c2ccccc2)CC1
- AC50 [10]: 51.1 µM (active)

Compound: CCS(=O)(=O)N1CC2(CN(Cc3ccccc3F)[C@@H](CO)c3[nH]c4cc(OC)ccc4c32)C1
- AC50 [13]: 9.94 µM (active)

Compound: CCCN(C)C[C@@H]1Oc2cc(C#CC3CCCC3)ccc2S(=O)(=O)N([C@@H](C)CO)C[C@@H]1C
- AC50 [13]: 4.85 µM (active)

Compound: CC(C)NC(=O)N1[C@H](C#N)[C@H](c2ccc(-c3ccc(F)cc3)cc2)[C@@H]1CO
- AC50 [13]: 4.17 µM (active)

Compound: C[C@H](CO)N1C[C@H](C)[C@H](CN(C)S(=O)(=O)c2ccccc2)Oc2ccc(NC(=O)Cc3cn(C)c4ccccc34)cc2C1=O
- AC50 [13]: 3.2 µM (active)

Compound: CN(C)c1ccc2nsnc2c1[N+](=O)[O-]
- EC50 [6]: 8.64 µM (active)
- AC50 [7]: > 380 µM (inactive)

Compound: Cc1n[nH]c2c1C(c1cc(Br)cs1)C(C#N)=C(N)O2 (stereo not drawn)
- EC50 [6]: 6.13 µM (active)
- EC50 [14]: 14.6 µM (active)
- AC50 [7]: 12.7 µM (active)

Compound: COc1cccc(NC(=O)N(C)C[C@H]2Oc3ncc(/C=C/c4ccccc4)cc3C(=O)N([C@@H](C)CO)C[C@@H]2C)c1
- AC50 [13]: 6.14 µM (active)

Compound: O=C(O)CCC(=O)NCCn1c(-c2ccccc2)cs/c1=N\c1ccccc1
- EC50 [14]: > 260 µM (inactive)
- AC50 [5]: 22.3 µM (active)

Compound: N#C[C@@H]1[C@H](c2ccc(C#CC3CCCCC3)cc2)[C@H](CO)N1C(=O)Nc1ccc(F)cc1
- AC50 [13]: 5.43 µM (active)

Compound: O=C(c1c[nH]c2ccccc12)N1CCN(c2ccccc2)CC1
- AC50 [5]: 4.16 µM (active)

Compound: O=[N+]([O-])c1cccc2c([As](=O)(O)O)cccc12
- EC50 [6]: 10.1 µM (active)
- AC50 [7]: 16.4 µM (active)
